Patent US20200071316A1, “ACTIVATORS OF THE RETINOIC ACID INDUCIBLE GENE "RIG-I" PATHWAY AND METHODS OF USE THEREOF” (Kineta Immuno-Oncology LLC, priority 2018, published 2020)
Marks after values point to notes of the source that are not given here.

What was measured:
[1] = system: IRF3 signaling pathway (IRF-inducible ISG54 promotor) in THP1-Lucia ISG cells; assay: THP1-Lucia ISG reporter assay: induction of IRF3-dependent luciferase activity; type: cell-based; settings: Homo sapiens, PMA-differentiated cells, 18 h after stimulation, read-out: THP1 ISG: fold increase of IRF3-dependent luciferase activity over background; for fold induction at 10 µM: 10 μM compound
Method in brief: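 PMA-differentiated (100 ng/ml) reporter cells, parental and IRF3−/−, stimulated with compounds at 5–20 μM (mostly 10 μM). Secreted luciferase measured 18 h later. Scored as fold increase over untreated background in bands from "−" (<2.4-fold) to "+++++" (≥40-fold).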

[2] = system: THP1-Lucia ISG IRF3 −/− cells; assay: IRF3-deficient THP1-Lucia ISG IRF3 −/− reporter assay (counter-screen); type: cell-based; settings: Homo sapiens, 18 h after stimulation, read-out: THP1 ISG IRF3 −/−: fold increase of luciferase activity over background; for fold induction at 10 µM: 10 μM compound; for fold induction at 5 µM: 5 μM compound (**)
Method in brief: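 PMA-differentiated (100 ng/ml) reporter cells carrying ISRE/ISG54 minimal promoter-driven secreted luciferase were stimulated with compounds at 5–20 μM (mostly 10 μM). Luciferase measured 18 h later and expressed as fold increase over untreated background, binned from "−" (<2.4-fold) to "+++++" (≥40-fold).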

[3] = system: CXCL10 secretion by CT26 cells; assay: RIG-I dependent CXCL10 secretion by CT26 colon carcinoma cells (ELISA); type: cell-based, murine; settings: 24 h
Method in brief: (§1)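 Murine CT26 colon carcinoma cells, and CRISPR-generated RIG-I knockout CT26 cells, were seeded at 1×10^4 cells/well and grown 24 h at 37 °C, 5% CO2, then treated with compounds at 5 to 20 μM. CXCL10 in supernatants was measured by ELISA 24 h after stimulation.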

[4] = system: RIG-I deficient CT26 RIG-1−/− cells; assay: CXCL10 secretion in RIG-I deficient CT26 RIG-1−/− cells (ELISA); type: cell-based, murine; settings: 24 h
Method in brief: as §1

Structure (SMILES) | fold induction at 10 µM [1] | fold induction at 10 µM [2] | CXCL10 secretion by CT26 cells ([3]; 10 μM compound) | CXCL10 secretion by CT26 RIG-I −/− cells ([4]; 10 μM compound) | further results
O=C(Nc1nc2cccc(C(F)(F)F)c2s1)c1ccc2ccccc2c1 [Example 11, N-[7-(trifluoromethyl)-1,3-benzothiazol-2-yl]naphthalene-2-carboxamide] | 10 to 19 | < 2.4 | ++ (“++” indicates 200-399 pg/mL) | − (“−” indicates less than 100 pg/mL) | 
Cn1c(C(=O)Nc2nc3ccc(S(=O)(=O)N4CCCC4)cc3s2)cc2ccccc21 [Example 52, 1-methyl-N-[6-(pyrrolidine-1-sulfonyl)-1,3-benzothiazol-2-yl]-1H-indole-2-carboxamide] | 10 to 19 | < 2.4 |  |  | CXCL10 secretion by CT26 cells ([3]; 20 μM compound (*)): +* (“+” indicates 100-199 pg/mL); CXCL10 secretion by CT26 RIG-I −/− cells ([4]; 20 μM compound (*)): −* (“−” indicates less than 100 pg/mL)
O=C(Nc1nc2ccc(S(=O)(=O)N3CCCC3)cc2s1)c1cc2c(cc1OCCN1CCOCC1)OCO2 [Example 40, 6-[2-(morpholin-4-yl)ethoxy]-N-[6-(pyrrolidine-1-sulfonyl)-1,3-benzothiazol-2-yl]-2H-1,3-benzodioxole-5-carboxamide] |  |  |  |  | fold induction at 20 µM ([1]; 20 μM compound (*)): 2.4 to 4.9; fold induction at 20 µM ([2]; 20 μM compound (*)): < 2.4; CXCL10 secretion by CT26 cells ([3]; 5 μM compound (**)): ++** (“++” indicates 200-399 pg/mL); CXCL10 secretion by CT26 RIG-I −/− cells ([4]; 5 μM compound (**)): −** (“−” indicates less than 100 pg/mL)
O=C(Nc1ccc2nc(NC(=O)c3ccc4ccccc4c3)sc2c1)c1ccccc1 [Example 6, N-(6-benzamido-1,3-benzothiazol-2-yl)naphthalene-2-carboxamide] | 20 to 39 | < 2.4 | ++ (“++” indicates 200-399 pg/mL) | − (“−” indicates less than 100 pg/mL) | 
O=C(Nc1nc2ccc(S(=O)(=O)N3CC4(COC4)C3)cc2s1)c1cc2ccccc2cc1OCCCCN1CCOCC1 [Example 55, 3-[4-(morpholin-4-yl)butoxy]-N-(6-{2-oxa-6-azaspiro[3.3]heptane-6-sulfonyl}-1,3-benzothiazol-2-yl)naphthalene-2-carboxamide] | 2.4 to 4.9 | < 2.4 | ++ (“++” indicates 200-399 pg/mL) | − (“−” indicates less than 100 pg/mL) | 
O=C(Nc1nc2ccc(S(=O)(=O)N3CCOCC3)cc2s1)c1cc2ccccc2cc1OCCCCN1CCOCC1 [Example 17, 3-[4-(morpholin-4-yl)butoxy]-N-[6-(morpholine-4-sulfonyl)-1,3-benzothiazol-2-yl]naphthalene-2-carboxamide] | 10 to 19 | < 2.4 | +++ (“+++” indicates 400-799 pg/mL) | − (“−” indicates less than 100 pg/mL) | 
O=C(Nc1nc2ccc(S(=O)(=O)N3CCCC3)cc2s1)c1ccc(-c2cccnc2)cc1 [Example 53, 4-(pyridin-3-yl)-N-[6-(pyrrolidine-1-sulfonyl)-1,3-benzothiazol-2-yl]benzamide] | 2.4 to 4.9 | < 2.4 | − (“−” indicates less than 100 pg/mL) | − (“−” indicates less than 100 pg/mL) | 
COC(=O)c1ccc2nc(NC(=O)c3cc4ccccc4cc3OCCN3CCOCC3)sc2c1 [Example 69, methyl 2-{3-[2-(morpholin-4-yl)ethoxy]naphthalene-2-amido}-1,3-benzothiazole-6-carboxylate] |  |  |  |  | fold induction at 5 µM ([1]; 5 μM compound (**)): 5 to 9.9; fold induction at 5 µM [2]: < 2.4; CXCL10 secretion by CT26 cells ([3]; 5 μM compound (**)): ++** (“++” indicates 200-399 pg/mL); CXCL10 secretion by CT26 RIG-I −/− cells ([4]; 5 μM compound (**)): −** (“−” indicates less than 100 pg/mL)
O=C(Nc1cc2ccc(S(=O)(=O)N3CCCC3)cc2s1)c1cc2ccccc2cc1OCCCCN1CCOCC1 [Example 70, 3-[4-(morpholin-4-yl)butoxy]-N-[6-(pyrrolidine-1-sulfonyl)-1-benzothiophen-2-yl]naphthalene-2-carboxamide] | 10 to 19 | < 2.4 | +++ (“+++” indicates 400-799 pg/mL) | − (“−” indicates less than 100 pg/mL) | 
O=C(Nc1cc2ccc(S(=O)(=O)N3CCCC3)cc2s1)c1cc2ccccc2cc1OCCN1CCOCC1 [Example 74, 3-[2-(morpholin-4-yl)ethoxy]-N-[6-(pyrrolidine-1-sulfonyl)-1-benzothiophen-2-yl]naphthalene-2-carboxamide] | 10 to 19 | < 2.4 | +++ (“+++” indicates 400-799 pg/mL) | − (“−” indicates less than 100 pg/mL) | 
O=C(Nc1cc2ccc(S(=O)(=O)N3CCCC3)cc2s1)c1cc2ccsc2cc1OCCN1CCOCC1 [Example 76, 6-[2-(morpholin-4-yl)ethoxy]-N-[6-(pyrrolidine-1-sulfonyl)-1-benzothiophen-2-yl]-1-benzothiophene-5-carboxamide] | 20 to 39 | < 2.4 | ++++ (“++++” indicates 800 to 1599 pg/mL) | − (“−” indicates less than 100 pg/mL) | 
O=C(Nc1nc2ccc(S(=O)(=O)N3CCC(O)C3)cc2s1)c1cc2ccccc2cc1OCCCCN1CCOCC1 (stereo not shown) [Example 57, N-{6-[(3-hydroxypyrrolidin-1-yl)sulfonyl]-1,3-benzothiazol-2-yl}-3-[4-(morpholin-4-yl)butoxy]naphthalene-2-carboxamide] | 10 to 19 | < 2.4 | +++ (“+++” indicates 400-799 pg/mL) | − (“−” indicates less than 100 pg/mL) | 
Cn1c(C(=O)Nc2nc3ccc(S(=O)(=O)N4CCC4)cc3s2)cc2ccccc21 [Example 51, N-[6-(azetidine-1-sulfonyl)-1,3-benzothiazol-2-yl]-1-methyl-1H-indole-2-carboxamide] | 2.4 to 4.9 | < 2.4 | + (“+” indicates 100-199 pg/mL) | − (“−” indicates less than 100 pg/mL) | 
O=C(Nc1nc2ccc(NC(=O)C3CCCCC3)cc2s1)c1ccc2ccccc2c1 [Example 8, N-(6-cyclohexaneamido-1,3-benzothiazol-2-yl)naphthalene-2-carboxamide] | 10 to 19 | < 2.4 | ++++ (“++++” indicates 800 to 1599 pg/mL) | − (“−” indicates less than 100 pg/mL) | 
O=C(Nc1nc2ccc(S(=O)(=O)N3CC[C@@H](O)C3)cc2s1)c1cc2ccccc2cc1OCCCCN1CCOCC1 [Example 78, N-(6-{[(3R)-3-hydroxypyrrolidin-1-yl]sulfonyl}-1,3-benzothiazol-2-yl)-3-[4-(morpholin-4-yl)butoxy]naphthalene-2-carboxamide] | ≥ 40 |  | +++++ (“+++++” indicates greater than or equal to 1600 pg/ml) | − (“−” indicates less than 100 pg/mL) | fold induction at 5 µM [2]: < 2.4
O=C(Nc1cc2ccc(S(=O)(=O)N3CCCC3)cc2s1)c1ccc(-c2ccccc2)cc1OCCCCN1CCOCC1 [Example 68, 3-[4-(morpholin-4-yl)butoxy]-N-[6-(pyrrolidine-1-sulfonyl)-1-benzothiophen-2-yl]-[1,1′-biphenyl]-4-carboxamide] | 20 to 39 | < 2.4 | ++++ (“++++” indicates 800 to 1599 pg/mL) | − (“−” indicates less than 100 pg/mL) | 
